Values quoted from earlier work in US5859021A, “Antiviral combinations” (priority 1991, dated 1999).

How the values were obtained:
[1] = versus (+) enantiomer
patients with AIDS = conditions: for toxicity in patients: AIDS patients, AZT: long-term therapy
[2] = tested on: normal human bone marrow progenitor cells; conditions: combination with high-dose AZT, antiviral activity not affected

## Nc1ccn([C@@H]2CS[C@H](CO)O2)c(=O)n1 (racemic) [compound of formula (I), (±)-(cis)-4-Amino-1-(2-hydroxymethyl-1,3-oxathiolan-5-yl)-(1H)-pyrimidin-2-one]
HIV
  antiviral activity against HIV: having antiviral activity

## Nc1ccn([C@@H]2CS[C@H](CO)O2)c(=O)n1 [3TC]
[1]
  cytotoxicity compared with the (+) enantiomer: considerably lower cytotoxicity than the (+) enantiomer

## Cc1cn([C@H]2C[C@H](N=[N+]=[N-])[C@@H](CO)O2)c(=O)[nH]c1=O [AZT, 3'-azido-3'-deoxythymidine]
HIV; in vitro
  inhibition of HIV replication in vitro: inhibit HIV replication in vitro
HIV; in vitro, with recombinant soluble CD4, castanospermine and recombinant interferon alpha
  antiviral activity in combination: synergistic antiviral activity
Patients with AIDS
  toxicity in patients: bone-marrow toxicity
Patients with AIDS; long-term AZT therapy
  appearance of resistant HIV-1 variants: appearance of AZT-resistant variants of HIV-1
Patients with AIDS; patients with AIDS
  morbidity and mortality: reduces morbidity and mortality

## Nc1ccn([C@H]2CC[C@@H](CO)O2)c(=O)n1 [ddC, 2',3'-dideoxycytidine]
HIV
  antiviral activity of AZT in combination with ddC: without affecting its antiviral activity
HIV; in vitro
  inhibition of HIV replication in vitro: inhibit HIV replication in vitro
Patients with AIDS
  toxicity in patients: peripheral neurophathy
[2]
  effect on bone marrow cytotoxicity of high-dose AZT: eliminates the bone marrow cytotoxicity of high-dose AZT

## OC[C@@H]1CC[C@H](n2cnc3c(O)ncnc32)O1 [ddI, 2',3'-dideoxyinosine]
HIV; in vitro
  inhibition of HIV replication in vitro: inhibit HIV replication in vitro
Patients with AIDS
  toxicity in patients: pancreatitis and peripheral neuropathy
